“Also recorded” adds a separate entry of the source.
Tests used:
[1] = tested on: retinal endothelial cells (REC); test: Annexin V/PI apoptosis analysis by flow cytometry in REC; assay type: cell-based, human
Method: Harvested cells were washed twice with cold PBS/2% FBS. Pelleted cells were resuspended in Annexin V Binding Buffer (BioLegend, San Diego, Calif.) at a concentration of 5.0×10^6 cells/mL following manufacturer's instructions. 5.0×10^5 cells (100 μL) were labeled with 5 μL of FITC Annexin V and 10 μL of Propidium Iodide (PI) solution. Cells were vortexed gently and incubated for 15 minutes at RT in dark. 300 μL of Annexin V Binding Buffer were added to each sample tube and analyzed in BD LSRII Flow Cytometry Analyzer (BD Biosciences, San Jose, Calif.). Apoptotic cells were defined as Annexin V^+PI^neg while necrotic cells are defined as Annexin V^+PI^+. […]
To investigate the potential of compound (II-4) affecting the proliferative capacity of RECs treated with VEGF, proliferation was measured using the metabolic assay based on the tetrazolium salt, WST-1. […] Cells were harvested and apoptosis measured with Annexin-V/Propidium Iodide (PI) staining and analyzed using flow cytometry.
FIG. 18: REC Proliferation and Flow cytometry analysis of apoptosis in REC. A) VEGF-induced cellular proliferation was assessed using the WST-1 metabolic assay. […] B) Apoptosis was measured using Annexin V/PI staining Compound (II-4) (1 μM) appears to be non-cytotoxic to retinal endothelial cells after 24 hour incubation (n≈10,000 cells).

AKT (Ser473) = test: Western blot of VEGF-induced AKT phosphorylation in REC; assay type: cell-based, human; details: REC under VEGF; compound (II-4) 500 nM, SU6656 1 μM
Method: REC, Mel 270, OMM 2.5 under Hepatocyte Growth Factor (HGF) or Vascular Endothelial Growth Factor (VEGF) stimulation conditions: Cell lysates were collected in RIPA lysis buffer (50 mM Tris-HCl, pH 7.4, 150 mM NaCl, 2 mM EDTA, 1% Nonidet P-40, 0.1% SDS) with protease 1× inhibitor cocktail (Roche; Indianapolis, Ind.). Lysates were kept on ice and centrifuged at 10,000×g×10 minutes and total protein was measured using the BCA assay (Pierce, Rockford, Ill.). Protein samples were mixed with 4×LDS loading buffer with 2.5% 2-mercaptoethanol (Sigma-Aldrich), heated to 70° C. for 10 minutes, and loaded on NuPAGE 4-12% Bis-Tris gel (Invitrogen, Carlsbad, Calif.). Immunoblotting was performed with nitrocellulose membranes (Bio-Rad, Hercules, Calif.) at 170-mA start and 110-mA end at 25 V for two hours in NuPAGE transfer buffer (Invitrogen) containing 20% methanol. Membranes were blocked using Odyssey blocking buffer (LI-COR; Lincoln, Nebr.) for one hour at room temperature with gentle shaking Membranes were then incubated at 4° C. with specific primary antibodies (1:1000) overnight. Cellular protein was normalized using rabbit-GAPDH or mouse-α-Tubulin [1:20,000] (Cell Signaling, Danvers, Mass.; LI-COR, respectively). […] Dual-channel infrared scan and quantitation of immunoblots were conducted using the ODYSSEY Sa infrared imaging system with Image Studio (Ver. 3.1.4) (LI-COR). […]

AKT in OMM 2.5 cells = test: Western blot of pAKT/AKT in HGF-stimulated metastatic UM cells; assay type: cell-based, human; details: HGF-stimulated OMM 2.5 cells, harvest after 4 hrs
Method: REC, Mel 270, OMM 2.5 under Hepatocyte Growth Factor (HGF) or Vascular Endothelial Growth Factor (VEGF) stimulation conditions: Cell lysates were collected in RIPA lysis buffer (50 mM Tris-HCl, pH 7.4, 150 mM NaCl, 2 mM EDTA, 1% Nonidet P-40, 0.1% SDS) with protease 1× inhibitor cocktail (Roche; Indianapolis, Ind.). Lysates were kept on ice and centrifuged at 10,000×g×10 minutes and total protein was measured using the BCA assay (Pierce, Rockford, Ill.). Protein samples were mixed with 4×LDS loading buffer with 2.5% 2-mercaptoethanol (Sigma-Aldrich), heated to 70° C. for 10 minutes, and loaded on NuPAGE 4-12% Bis-Tris gel (Invitrogen, Carlsbad, Calif.). Immunoblotting was performed with nitrocellulose membranes (Bio-Rad, Hercules, Calif.) at 170-mA start and 110-mA end at 25 V for two hours in NuPAGE transfer buffer (Invitrogen) containing 20% methanol. […] Dual-channel infrared scan and quantitation of immunoblots were conducted using the ODYSSEY Sa infrared imaging system with Image Studio (Ver. 3.1.4) (LI-COR).
FIG. 16: Paxillin inhibition reduced pAKT signaling in metastatic UM cells. A, Representative Western Blot of total and phosphorylated paxillin in metastatic UM cells, as in FIG. 4A-B. B, Quantitation from n=3. […] Lysates were measured by Western Blot. […]

Pkd1 V/V mouse = test: Dermal microemulsion delivery to Pkd1 cystic mice (ADPKD model); assay type: in vivo; details: dermal application as microemulsion, neonatal Pkd1 mice
Text: Paxillin is abnormally expressed in cystic epithelial cells in a mouse model of ADPKD. […] For this reason, paxillin can be considered to act as a “rheostat” that can be targeted to curtail cystogenesis.
The paxillin inhibitor compound (II-4) inactivates phosphorylation at Y118 on paxillin using retinal endothelial cells. Compound (II-4) has been formulated as a microemulsion for non-invasive delivery to neonatal Pkd1 non-cystic and cystic mice and it has been observed that renal cystic disease was attenuated as measured by total kidney-to-body weight ratio.
FIG. 4: Paxillin in ADPKD kidneys. (A) Immunoblot of total paxillin in protein lysates from non-cystic Pkd1^+/+ (n=5) and cystic Pkd1^V/V (n=3) mouse kidneys at post-natal day 11 after 8 days of dermal application of compound (II-4) microemulsion solution. GAPDH was used as a loading control. Densitometry of the bands normalized to GAPDH is shown for (B) paxillin and (C) phospho-paxillin (C). * P<0.005 difference between groups.

COc1cc(C2OC(=O)Nc3c2ccc2ccccc32)cc(OC)c1OC (centres unmarked) [compound II-4]
spontaneous apoptosis in REC (PI and Annexin V) ([1]; 1 μM for 4-hrs): did not cause an increase in spontaneous apoptosis
apoptosis / cytotoxicity in REC (Annexin-V/PI) ([1]; 1 μM for 24 hours): No evidence of apoptosis was detected; also recorded: non-cytotoxic
VEGF-induced activation of AKT (P-AKT Ser473) (AKT (Ser473)): able to prevent; also recorded: reduced
pAKT/AKT (AKT in OMM 2.5 cells): significant reduction
renal cystic disease / cystic disease progression (total kidney-to-body weight ratio) (Pkd1 V/V mouse): functional reduction in cystic disease progression; also recorded: attenuated

Reference: US9834525B2, “Inhibitors of paxillin function and related compositions and methods” (UNIVERSITY OF TENNESSEE RESEARCH FOUNDATION, priority 2015, dated 2017)
